Results taken from PMC6271228, “Diethyl 2-(Phenylcarbamoyl)phenyl Phosphorothioates: Synthesis, Antimycobacterial Activity and Cholinesterase Inhibition” (Molecules, 2014).
Converted amounts (≈) assume the structure as drawn. Read-outs that look alike come from different tables or passages of the source.

Key:
[1] = system: M. kansasii 6509/96 (clinically isolated); assay: microbe, parasite or virus in culture; assay type: cell-based; settings: Mycobacterium kansasii, 37 °C
[2] = target: T1, AChE from electric eel (Electrophorus electricus, UniProt O42275); assay: AChE inhibition, modified Ellman's method; assay type: biochemical, Electrophorus electricus L.
T1 construct: Acetylcholinesterase was obtained from electric eel (Electrophorus electricus L.); from tissue; host or cells: electric eel (Electrophorus electricus L.)
T1 sequence (O42275 24-633): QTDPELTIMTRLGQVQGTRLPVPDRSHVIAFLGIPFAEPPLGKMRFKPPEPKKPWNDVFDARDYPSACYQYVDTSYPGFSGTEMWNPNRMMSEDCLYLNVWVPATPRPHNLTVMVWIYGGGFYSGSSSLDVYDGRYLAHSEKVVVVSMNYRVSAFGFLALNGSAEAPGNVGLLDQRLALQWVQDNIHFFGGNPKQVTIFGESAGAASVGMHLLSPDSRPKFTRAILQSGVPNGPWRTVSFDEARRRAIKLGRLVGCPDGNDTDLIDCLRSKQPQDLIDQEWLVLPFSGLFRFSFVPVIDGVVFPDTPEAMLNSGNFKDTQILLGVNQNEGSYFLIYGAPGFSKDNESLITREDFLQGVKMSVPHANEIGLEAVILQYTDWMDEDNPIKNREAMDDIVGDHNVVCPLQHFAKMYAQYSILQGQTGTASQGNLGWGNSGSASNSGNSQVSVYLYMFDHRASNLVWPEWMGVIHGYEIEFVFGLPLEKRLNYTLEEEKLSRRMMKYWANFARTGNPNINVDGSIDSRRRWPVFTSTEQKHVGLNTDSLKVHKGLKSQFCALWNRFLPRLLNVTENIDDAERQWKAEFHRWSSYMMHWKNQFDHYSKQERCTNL
Excerpt: (§1) The ability of the tested compounds to inhibit AChE from electric eel (Electrophorus electricus L.) and BChE from equine serum was screened in vitro using modified Ellman’s method for the evaluation of cholinesterase activity. […] […]. These two standards were chosen due to their different structures. […]. The choice of these drugs with different mechanism of action can provide relevant results. All tested compounds expressed a good inhibitory activity with IC50s in low micromolar values.
(§2) The IC50 values were determined using the spectrophotometric Ellman’s method, which is a simple, rapid and direct method to determine the SH and -S-S- group content in proteins. This method is widely used for cholinesterase activity evaluation and screening of the efficiency of cholinesterase inhibitors. Cholinesterase activity is measured indirectly by quantifying the concentration of 5-thio-2-nitrobenzoic acid (TNB) ion formed in the reaction between the thiol reagent 5,5'-dithiobis-2-nitrobenzoic acid (DTNB) and thiocholine, a product of substrate hydrolysis by cholinesterase (i.e., acetylthiocholine, ATCh). All the tested compounds were dissolved in dimethyl sulfoxide (concentration 0.01 M) and then diluted in demineralised water (concentration 0.001 M and 0.0001 M). The Ellman’s method is slightly modified according to Zdrazilova et al.. Acetylcholinesterase was obtained from electric eel (Electrophorus electricus L.) and butyrylcholinesterase from equine serum.

[3] = target: T2, BChE from equine serum (Equus caballus, UniProt P81908); assay: BChE inhibition, modified Ellman's method; assay type: biochemical
T2 construct: butyrylcholinesterase from equine serum; from tissue; host or cells: equine serum
T2 sequence (P81908 whole entry): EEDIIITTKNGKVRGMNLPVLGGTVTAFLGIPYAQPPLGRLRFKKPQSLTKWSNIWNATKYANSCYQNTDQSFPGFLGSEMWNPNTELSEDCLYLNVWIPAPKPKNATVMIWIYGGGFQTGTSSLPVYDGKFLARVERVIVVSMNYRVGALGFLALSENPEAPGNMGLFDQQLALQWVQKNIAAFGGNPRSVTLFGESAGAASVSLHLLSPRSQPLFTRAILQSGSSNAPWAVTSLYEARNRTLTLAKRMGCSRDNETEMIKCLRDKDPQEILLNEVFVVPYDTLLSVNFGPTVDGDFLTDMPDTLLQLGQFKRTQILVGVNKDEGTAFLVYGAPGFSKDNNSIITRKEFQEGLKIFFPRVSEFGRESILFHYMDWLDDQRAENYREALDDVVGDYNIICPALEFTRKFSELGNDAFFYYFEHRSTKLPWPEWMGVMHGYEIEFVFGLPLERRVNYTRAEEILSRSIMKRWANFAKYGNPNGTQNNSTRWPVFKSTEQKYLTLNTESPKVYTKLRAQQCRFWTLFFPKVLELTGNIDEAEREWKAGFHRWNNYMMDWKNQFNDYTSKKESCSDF
Excerpt: as §1, §2

[4] = system: Mycobacterium tuberculosis My 331/88 (H37Rv); assay: microbe, parasite or virus in culture; assay type: cell-based
[5] = system: M. avium My 330/88; assay: microbe, parasite or virus in culture; assay type: cell-based, Mycobacterium avium; settings: for MIC: Mycobacterium avium, 37 °C; for MIC values against M. avium: all MIC values (14 and 21 d)
[6] = system: M. kansasii My 235/80; assay: microbe, parasite or virus in culture; assay type: cell-based, Mycobacterium kansasii; settings: for MIC: Mycobacterium kansasii, 37 °C; for MICs for M. kansasii 235/80: all time points
[7] = 168 h, 7 d, read-out: MIC M. kansasii 6509/96 7 d
[8] = 336 h, 14 d, read-out: MIC M. kansasii 6509/96 14 d
[9] = 504 h, 21 d, read-out: MIC M. kansasii 6509/96 21 d
[10] = 336 h, 14 d, 37 °C, read-out: MIC Mtb 331/88 (H37Rv) 14 d
[11] = 504 h, 21 d, 37 °C, read-out: MIC Mtb 331/88 (H37Rv) 21 d
[12] = MY330/88, 336 h, 14 d, read-out: MIC M. avium 330/88 14 d
[13] = MY330/88, 504 h, 21 d, read-out: MIC M. avium 330/88 21 d
[14] = MY235/80, 168 h, 7 d, read-out: MIC M. kansasii 235/80 7 d
[15] = MY235/80, 336 h, 14 d, read-out: MIC M. kansasii 235/80 14 d
[16] = MY235/80, 504 h, 21 d, read-out: MIC M. kansasii 235/80 21 d

SMILES	MIC [1, 7]	MIC [1, 8]	MIC [1, 9]	IC50 [2]	IC50 [3]	MIC [4, 10]	MIC [4, 11]	MIC [5, 12]	MIC [5, 13]	MIC [6, 14]	MIC [6, 15]	MIC [6, 16]	MIC ([4]; read-out: MIC against Mtb)	MIC values against M. avium [5]	MICs for M. kansasii 235/80 [6]
CCOP(=S)(OCC)Oc1ccc(Br)cc1C(=O)Nc1cccc(Cl)c1 [1a, O-{4-Bromo-2-[(3-chlorophenyl)carbamoyl]phenyl} O,O-diethyl phosphorothioate]	125 µM (≈ 59.8 µg/mL)	500 µM (≈ 239 µg/mL)	500 µM (≈ 239 µg/mL)	12.6 ± 0.05 µM	13.9 ± 0.05 µM	8 µM (≈ 3.83 µg/mL)	16 µM (≈ 7.66 µg/mL)	500 µM (≈ 239 µg/mL)	> 500 µM	125 µM (≈ 59.8 µg/mL)	500 µM (≈ 239 µg/mL)	500 µM (≈ 239 µg/mL)	–	–	–
CCOP(=S)(OCC)Oc1ccc(Br)cc1C(=O)Nc1ccc(Cl)cc1 [1b, O-{4-Bromo-2-[(4-chlorophenyl)carbamoyl]phenyl} O,O-diethyl phosphorothioate]	125 µM (≈ 59.8 µg/mL)	500 µM (≈ 239 µg/mL)	500 µM (≈ 239 µg/mL)	12.9 ± 0.1 µM	13.5 ± 0.9 µM	16 µM (≈ 7.66 µg/mL)	16 µM (≈ 7.66 µg/mL)	500 µM (≈ 239 µg/mL)	500 µM (≈ 239 µg/mL)	125 µM (≈ 59.8 µg/mL)	500 µM (≈ 239 µg/mL)	500 µM (≈ 239 µg/mL)	–	–	–
CCOP(=S)(OCC)Oc1ccc(Br)cc1C(=O)Nc1ccc(Cl)c(Cl)c1 [1c, O-{4-Bromo-2-[(3,4-dichlorophenyl)carbamoyl]phenyl} O,O-diethyl phosphorothioate]	62.5 µM (≈ 32.1 µg/mL)	125 µM (≈ 64.1 µg/mL)	125 µM (≈ 64.1 µg/mL)	14 ± 0.1 µM	18.8 ± 0.7 µM	4 µM (≈ 2.05 µg/mL)	4 µM (≈ 2.05 µg/mL)	500 µM (≈ 257 µg/mL)	500 µM (≈ 257 µg/mL)	62.5 µM (≈ 32.1 µg/mL)	250 µM (≈ 128 µg/mL)	500 µM (≈ 257 µg/mL)	4 µM (≈ 2.05 µg/mL)	–	–
CCOP(=S)(OCC)Oc1ccc(Br)cc1C(=O)Nc1cccc(Br)c1 [1d]	125 µM (≈ 65.4 µg/mL)	125 µM (≈ 65.4 µg/mL)	125 µM (≈ 65.4 µg/mL)	11.3 ± 0.05 µM	20 ± 0.2 µM	16 µM (≈ 8.37 µg/mL)	16 µM (≈ 8.37 µg/mL)	125 µM (≈ 65.4 µg/mL)	125 µM (≈ 65.4 µg/mL)	125 µM (≈ 65.4 µg/mL)	125 µM (≈ 65.4 µg/mL)	125 µM (≈ 65.4 µg/mL)	–	≤ 250 µM	≤ 250 µM
CCOP(=S)(OCC)Oc1ccc(Br)cc1C(=O)Nc1ccc(Br)cc1 [1e, O-{4-Bromo-2-[(4-bromophenyl)carbamoyl]phenyl} O,O-diethyl phosphorothioate]	62.5 µM (≈ 32.7 µg/mL)	250 µM (≈ 131 µg/mL)	250 µM (≈ 131 µg/mL)	10.7 µM	18.9 ± 0.2 µM	8 µM (≈ 4.19 µg/mL)	16 µM (≈ 8.37 µg/mL)	250 µM (≈ 131 µg/mL)	250 µM (≈ 131 µg/mL)	125 µM (≈ 65.4 µg/mL)	250 µM (≈ 131 µg/mL)	250 µM (≈ 131 µg/mL)	–	≤ 250 µM	≤ 250 µM
CCOP(=S)(OCC)Oc1ccc(Br)cc1C(=O)Nc1cccc(F)c1 [1f, O-{4-Bromo-2-[(3-fluorophenyl)carbamoyl]phenyl} O,O-diethyl phosphorothioate]	62.5 µM (≈ 28.9 µg/mL)	250 µM (≈ 116 µg/mL)	250 µM (≈ 116 µg/mL)	12.7 ± 0.05 µM	12.2 µM	8 µM (≈ 3.7 µg/mL)	16 µM (≈ 7.4 µg/mL)	250 µM (≈ 116 µg/mL)	500 µM (≈ 231 µg/mL)	62.5 µM (≈ 28.9 µg/mL)	250 µM (≈ 116 µg/mL)	500 µM (≈ 231 µg/mL)	–	–	–
CCOP(=S)(OCC)Oc1ccc(Br)cc1C(=O)Nc1ccc(F)cc1 [1g, O-{4-Bromo-2-[(4-fluorophenyl)carbamoyl]phenyl} O,O-diethyl phosphorothioate]	125 µM (≈ 57.8 µg/mL)	250 µM (≈ 116 µg/mL)	250 µM (≈ 116 µg/mL)	12.4 ± 0.05 µM	12.6 ± 0.3 µM	32 µM (≈ 14.8 µg/mL)	32 µM (≈ 14.8 µg/mL)	500 µM (≈ 231 µg/mL)	> 500 µM	125 µM (≈ 57.8 µg/mL)	500 µM (≈ 231 µg/mL)	> 500 µM	–	–	–
CCOP(=S)(OCC)Oc1ccc(Br)cc1C(=O)Nc1cccc(C(F)(F)F)c1 [1h, O-(4-Bromo-2-{[3-(trifluoromethyl)phenyl]carbamoyl}phenyl) O,O-diethyl phosphorothioate]	32 µM (≈ 16.4 µg/mL)	62.5 µM (≈ 32 µg/mL)	125 µM (≈ 64 µg/mL)	13 ± 0.02 µM	20 ± 0.5 µM	8 µM (≈ 4.1 µg/mL)	8 µM (≈ 4.1 µg/mL)	125 µM (≈ 64 µg/mL)	125 µM (≈ 64 µg/mL)	32 µM (≈ 16.4 µg/mL)	62.5 µM (≈ 32 µg/mL)	125 µM (≈ 64 µg/mL)	8 µM (≈ 4.1 µg/mL)	≤ 250 µM	≤ 250 µM
